Test [1] addresses T1, hTRPC5 (Homo sapiens, UniProt Q9UL62).
T1 construct: expressed in transfected cells; host or cells: HEK-293
T1 sequence (Q9UL62 1-973): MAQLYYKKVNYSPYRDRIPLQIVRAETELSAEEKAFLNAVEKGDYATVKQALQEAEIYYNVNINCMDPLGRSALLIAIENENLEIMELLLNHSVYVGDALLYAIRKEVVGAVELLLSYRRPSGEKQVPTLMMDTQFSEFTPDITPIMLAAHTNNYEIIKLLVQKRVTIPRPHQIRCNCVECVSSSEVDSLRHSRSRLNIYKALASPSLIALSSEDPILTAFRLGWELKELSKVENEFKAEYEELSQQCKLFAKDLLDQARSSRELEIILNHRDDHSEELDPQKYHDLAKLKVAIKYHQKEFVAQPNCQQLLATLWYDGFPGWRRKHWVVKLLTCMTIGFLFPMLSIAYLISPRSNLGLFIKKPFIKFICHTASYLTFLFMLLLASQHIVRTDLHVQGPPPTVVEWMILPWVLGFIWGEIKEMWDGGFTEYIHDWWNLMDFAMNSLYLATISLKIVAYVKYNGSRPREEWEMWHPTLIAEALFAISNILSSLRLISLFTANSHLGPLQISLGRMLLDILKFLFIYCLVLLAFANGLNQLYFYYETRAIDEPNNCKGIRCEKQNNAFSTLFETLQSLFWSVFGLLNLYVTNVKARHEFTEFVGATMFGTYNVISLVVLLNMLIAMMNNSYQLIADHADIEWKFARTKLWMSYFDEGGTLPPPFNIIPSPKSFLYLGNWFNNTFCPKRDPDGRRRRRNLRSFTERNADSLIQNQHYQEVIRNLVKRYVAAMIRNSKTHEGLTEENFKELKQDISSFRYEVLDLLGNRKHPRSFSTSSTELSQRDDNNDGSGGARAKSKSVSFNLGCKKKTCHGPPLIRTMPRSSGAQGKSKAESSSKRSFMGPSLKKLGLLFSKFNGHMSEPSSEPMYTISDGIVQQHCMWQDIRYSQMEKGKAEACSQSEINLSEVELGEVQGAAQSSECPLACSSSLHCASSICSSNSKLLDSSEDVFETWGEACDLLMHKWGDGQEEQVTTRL
In words: TRPC5 inhibitory activity assay (FLIPR calcium fluorescence, Englerin A stimulation). Format: cell-based. The method, boiled down: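 HEK-293 cells expressing the human channel, loaded with 4 µM Fluo-4/AM for 60 min at 37 °C, then stimulated with Englerin A (0.3nM final) and read for 600 s.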

For test [2], the target named is T2, hTRPC4 (Homo sapiens, UniProt Q9UBN4).
T2 construct: expressed in transfected cells; host or cells: HEK-293
T2 sequence (Q9UBN4 1-977): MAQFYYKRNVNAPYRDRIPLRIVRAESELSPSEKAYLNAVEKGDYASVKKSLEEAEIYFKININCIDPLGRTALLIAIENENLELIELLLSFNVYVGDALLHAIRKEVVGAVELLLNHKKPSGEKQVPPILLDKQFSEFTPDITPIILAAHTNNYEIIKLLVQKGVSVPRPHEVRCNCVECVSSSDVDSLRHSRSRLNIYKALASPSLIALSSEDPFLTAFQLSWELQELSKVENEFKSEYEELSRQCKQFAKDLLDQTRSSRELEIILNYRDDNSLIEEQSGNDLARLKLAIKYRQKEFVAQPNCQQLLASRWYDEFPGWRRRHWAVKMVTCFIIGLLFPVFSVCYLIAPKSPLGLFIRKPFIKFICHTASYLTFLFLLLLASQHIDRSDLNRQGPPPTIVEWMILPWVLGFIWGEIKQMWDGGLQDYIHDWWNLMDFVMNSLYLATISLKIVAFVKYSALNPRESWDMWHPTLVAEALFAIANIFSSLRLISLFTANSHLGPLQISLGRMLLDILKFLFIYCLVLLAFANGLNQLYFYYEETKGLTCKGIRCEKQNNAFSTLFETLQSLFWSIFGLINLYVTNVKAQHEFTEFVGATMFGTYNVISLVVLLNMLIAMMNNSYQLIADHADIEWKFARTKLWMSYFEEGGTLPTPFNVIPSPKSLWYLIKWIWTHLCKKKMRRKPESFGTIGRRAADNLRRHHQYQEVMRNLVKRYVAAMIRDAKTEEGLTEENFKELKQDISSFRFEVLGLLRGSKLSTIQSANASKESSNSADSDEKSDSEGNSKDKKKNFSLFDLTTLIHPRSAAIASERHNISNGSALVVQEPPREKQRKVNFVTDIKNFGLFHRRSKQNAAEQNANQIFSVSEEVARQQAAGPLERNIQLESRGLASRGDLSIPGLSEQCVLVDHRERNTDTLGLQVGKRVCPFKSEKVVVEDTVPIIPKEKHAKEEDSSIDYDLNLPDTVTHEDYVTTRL
Put plainly: TRPC4 inhibitory activity assay (FLIPR calcium fluorescence). Format: cell-based. The protocol: HEK-293 cells expressing hTRPC3, hTRPC4 or hTRPC5 were seeded into black-bottomed 96-well plates coated with poly-lysine (PDL), with 2×10^4 cells per well. After 8 h of culture, the original culture medium was discarded, and 60 µL of Fluo-4/AM dye with a final concentration of 4 µM was added. The plates were incubated at 37 °C for 60 min, and then rinsed five times with calcium flow detection buffer. […] Then, the agonist Englerin A (EA) (MedChemExpress, Shanghai, China, final concentration of 0.3nM) was added, and the fluorescence signal was collected for 600 seconds. The fluorescence signal of the trajectory diagram is represented by F/F0, wherein F is the fluorescence signal at different time points, and F0 is the basic fluorescence signal, that is, the average value of the fluorescence signal at the first 10 time points. […] The area under the curve of the change in fluorescence intensity after adding EA was calculated. IC50 value was calculated using log[Inhibitor] vs. response - Variable slope, taking into account the area under the curve and the log value of the concentration of the compound.

Where [3] appears, read: Table 1, TRPC5 channels, HEK-293 cells expressing hTRPC5, read-out: FLIPR IC50.
The mark [4] stands for this setting: Table 3, read-out: inhibitory activity IC50 TRPC5.
The mark [5] stands for this setting: Table 3, read-out: inhibitory activity IC50 TRPC4.

Like-named read-outs stand apart in the source and are kept apart here.

Turning to `Cn1c(=O)n(CCCO)c(=O)c2c1nc(C1(F)CCC(C(F)(F)F)CC1)n2Cc1ccc(Cl)cc1` (stereo not shown) [Example E21, 7-(4-chlorobenzyl)-8-(1-fluoro-4-(trifluoromethyl)cyclohexyl)-1-(3-hydroxypropyl)-3-methyl-3,7-dihydro-1H-purine-2,6-dione], the IC50 in test [1] (setting [3]) stood at 5.1 nM; in test [1] (setting [4]), 5.1 nM; in test [2] (setting [5]), 8.3 nM.

Take `COC1CCC(F)(c2nc3c(c(=O)n(CCCO)c(=O)n3C)n2Cc2ccc(Cl)cc2)CC1` (stereo not shown) [Example E32, 7-(4-chlorobenzyl)-8-(1-fluoro-4-methoxycyclohexyl)-1-(3-hydroxypropyl)-3-methyl-3,7-dihydro-1H-purine-2,6-dione]: the figures for the IC50 in test [1] (setting [3]), in test [1] (setting [4]) and in test [2] (setting [5]) were 10.2 nM, 10.2 nM and 18.4 nM, respectively.

As to `Cn1c(=O)n(CCCO)c(=O)c2c1nc(C1(F)CCC(C(F)(F)F)CC1)n2Cc1ccc(F)c(F)c1` (stereo not shown) [Example E52], the IC50 in test [1] stood at 1.3 nM; in test [2], 5.7 nM.

For `Cn1c(=O)n(CCCO)c(=O)c2c1nc(C1(F)CCC(F)(F)CC1)n2Cc1ccc(F)c(Cl)c1` [Example E68, 7-(3-chloro-4-fluorobenzyl)-1-(3-hydroxypropyl)-3-methyl-8-(1,4,4-trifluorocyclohexyl)-3,7-dihydro-1H-purine-2,6-dione], the IC50 in test [1] (setting [3]) and in test [1] (setting [4]) was 0.58 nM throughout.

(Values after patent publication EP4663640A1 (Shanghai Institute of Materia Medica, Chinese Academy of …, priority 2023, dated 2024).)
